Results: ChEMBL document CHEMBL1131402, “Potent piperazine hydroxyethylamine HIV protease inhibitors containing novel P3 ligands” (Bioorg Med Chem Lett, 1998)
pEC50, pIC50: −log10 of the molar value.

Columns and labels:
[1] = test system: Human immunodeficiency virus 1; assay: Antiviral activity was assessed against M36M/I, I54I/V, V82F/A/S/T viral strains isolated from patient-313 pretreated with ritonavir(14 fold) at 85th day; format: functional, organism-based
[2] = test system: Human immunodeficiency virus 1; assay: Antiviral activity was assessed against I54I/V, A71V, V82A, L90L/M viral strains isolated from patient-235 pretreated with ritonavir (4 fold) at 36th week; format: functional, organism-based
[3] = test system: Human immunodeficiency virus 1; assay: Antiviral activity was assessed against K20K/R, 36M/I, 154V, A71A/V, V82T viral strains isolated from patient-129 pretreated with ritonavir(33 fold) at 16th week; format: functional, organism-based
[4] = test system: Human immunodeficiency virus 1; assay: Antiviral activity was assessed against K20K/R, M36M/I, 154V/I, L63L/P, V82/A viral strains isolated from patient-131 pretreated with ritonavir(20 fold) at 28th week; format: functional, organism-based
[5] = test system: Human immunodeficiency virus 1; assay: Antiviral activity was assessed against M36I, I54V, A71V, V82T viral strains isolated from patient-129 pretreated with ritonavir(14 fold) at 8th week; format: functional, organism-based
[6] = test system: Human immunodeficiency virus 1; assay: Antiviral activity was assessed against M36M/I, V82F viral strains isolated from patient-313 pretreated with ritonavir(9 fold) at 57th day; format: functional, organism-based
[7] = test system: MT4; assay: Cytotoxicity against MT-4 cells was determined by using cytopathic effect assay; format: functional, Homo sapiens
[8] = test system: Human immunodeficiency virus 1; assay: Anti-HIV activity was determined in MT-4 cells in the presence of 0% human serum using cytopathic effect assay; format: functional, organism-based; details: Human immunodeficiency virus 1, MT4
[9] = test system: Human immunodeficiency virus 1; assay: Anti-HIV activity was determined in MT-4 cells in the presence of 50% human serum using cytopathic effect assay; format: functional, organism-based; details: Human immunodeficiency virus 1, MT4, Serum
[10] = target: Cytochrome P450 3A4 (Homo sapiens, UniProt P08684); assay: […] inhibition of human liver microsomal Cytochrome P450 3A4; format: ADME
[11] = target: Human immunodeficiency virus type 1 protease (Human immunodeficiency virus 1) (UniProt Q72874); assay: Inhibition of HIV protease at 0.5 nM
[12] = target: Human immunodeficiency virus type 1 protease (Human immunodeficiency virus 1) (UniProt Q72874); assay: Compound was tested for the inhibition of HIV protease at 120 nM
[13] = test system: MT4; assay: Anti-HIV activity was determined in MT-4 cells in the presence of 50% human serum using cytopathic effect assay; NA means not active; format: functional, cell-based
[14] = test system: MT4; assay: Cytotoxicity against MT-4 cells was determined by using cytopathic effect assay; NA means not active; format: functional, cell-based, Homo sapiens
[15] = target: Human immunodeficiency virus type 1 protease (Human immunodeficiency virus 1) (UniProt Q72874); assay: Compound was tested for the inhibition of HIV protease at 97 nM
[16] = test system: MT4; assay: Anti-HIV activity was determined in MT-4 cells in the presence of 0% human serum using cytopathic effect assay; Not active; format: functional, cell-based

Sequence of Cytochrome P450 3A4 (P08684 whole entry): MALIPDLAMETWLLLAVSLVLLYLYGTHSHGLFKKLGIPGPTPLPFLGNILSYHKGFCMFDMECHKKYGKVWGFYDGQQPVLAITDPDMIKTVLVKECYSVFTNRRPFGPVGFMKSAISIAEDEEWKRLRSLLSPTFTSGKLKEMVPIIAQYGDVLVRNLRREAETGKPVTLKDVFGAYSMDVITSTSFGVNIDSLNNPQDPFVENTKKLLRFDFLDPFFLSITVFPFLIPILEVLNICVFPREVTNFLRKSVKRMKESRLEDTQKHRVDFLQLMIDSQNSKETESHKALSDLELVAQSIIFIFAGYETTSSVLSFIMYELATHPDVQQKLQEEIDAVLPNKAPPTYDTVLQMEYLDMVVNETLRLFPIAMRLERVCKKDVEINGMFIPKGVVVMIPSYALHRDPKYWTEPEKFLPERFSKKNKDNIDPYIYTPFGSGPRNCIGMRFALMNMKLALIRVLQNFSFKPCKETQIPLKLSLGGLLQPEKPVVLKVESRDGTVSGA

Row | Compound | CCIC50 [7] [µM] | pEC50 [8] | pEC50 [9] | inhibition [11] [%] | further results
1 | CC(C)c1nc(CN(C)C(=O)N[C@H](C(=O)N[C@@H](Cc2ccccc2)C[C@H](O)[C@H](Cc2ccccc2)NC(=O)OCc2cncs2)C(C)C)cs1 [RITONAVIR] | 56 | 7.15 | 6.09 | – | pEC50 [1]: 6.24; pEC50 [2]: 7.06; pEC50 [3]: 6.43; pEC50 [4]: 6.44; pEC50 [5]: 6.83; pEC50 [6]: 6.47
2 | CC(C)c1nc(COC(=O)N[C@H](C(=O)N[C@@H](Cc2ccccc2)[C@H](O)CN2CCN(Cc3cccnc3)C[C@H]2C(=O)NC(C)(C)C)C(C)C)cs1 | 59 | 7.92 | 7.17 | 69 | pIC50 [10]: 5.64
3 | CC(C)[C@@H](NC(=O)N(C)Cc1cncs1)C(=O)N[C@@H](Cc1ccccc1)[C@H](O)CN1CCN(Cc2ccccc2)C[C@H]1C(=O)NC(C)(C)C | 56 | 5.52 | 5.15 | – | inhibition [12]: 50%
4 | CC(C)c1nc(COC(=O)N[C@H](C(=O)N[C@@H](Cc2ccccc2)[C@H](O)CN2CCN(Cc3ccc(O)cc3)C[C@H]2C(=O)NC(C)(C)C)C(C)C)cs1 | 19 | 7.33 | 6.65 | 54 | –
5 | CC(C)c1nc(CN(C)C(=O)N[C@H](C(=O)N[C@@H](Cc2ccccc2)[C@H](O)CN2CCN(Cc3cncs3)C[C@H]2C(=O)NC(C)(C)C)C(C)C)cs1 | >100 | 7.89 | 7.08 | 60 | –
6 | CC(C)[C@H](NC(=O)OCc1cncs1)C(=O)N[C@@H](Cc1ccccc1)[C@H](O)CN1CCN(Cc2cncs2)C[C@H]1C(=O)NC(C)(C)C | >100 | 7.24 | 7.12 | 45 | –
7 | CC(C)c1nc(COC(=O)N[C@H](C(=O)N[C@@H](Cc2ccccc2)[C@H](O)CN2CCN(Cc3ccncc3)C[C@H]2C(=O)NC(C)(C)C)C(C)C)cs1 | 56 | 7.77 | 7.12 | 73 | –
8 | Cc1nc(COC(=O)N[C@H](C(=O)N[C@@H](Cc2ccccc2)[C@H](O)CN2CCN(Cc3ccc4c(c3)OCO4)C[C@H]2C(=O)NC(C)(C)C)C(C)C)cs1 | 56 | 7.96 | 7.13 | 45 | –
9 | CC(C)c1nc(COC(=O)N[C@H](C(=O)N[C@@H](Cc2ccccc2)[C@H](O)CN2CCN(Cc3nc4ccccc4[nH]3)C[C@H]2C(=O)NC(C)(C)C)C(C)C)cs1 | 18 | 7.34 | 5.98 | 65 | –
10 | COc1cc(CN2CCN(C[C@@H](O)[C@H](Cc3ccccc3)NC(=O)[C@@H](NC(=O)N(C)Cc3csc(C(C)C)n3)C(C)C)[C@H](C(=O)NC(C)(C)C)C2)ccc1O | 20 | 7.39 | 6.62 | 63 | –
11 | Cc1nc(COC(=O)N[C@H](C(=O)N[C@@H](Cc2ccccc2)[C@H](O)CN2CCN(Cc3ccc(F)cc3)C[C@H]2C(=O)NC(C)(C)C)C(C)C)cs1 | 39 | 7.96 | 7.15 | 50 | –
12 | CC(C)[C@@H](NC(=O)N(C)Cc1cncs1)C(=O)N[C@@H](Cc1ccccc1)[C@H](O)CN1CCN(Cc2cncs2)C[C@H]1C(=O)NC(C)(C)C | – | – | – | – | EC50 [13]: Not Active; EC50 [14]: Not Active; inhibition [15]: 50%; EC50 [16]: Not Active
13 | CC(C)[C@H](NC(=O)N(C)Cc1cncs1)C(=O)N[C@@H](Cc1ccccc1)[C@H](O)CN1CCN(Cc2cncs2)C[C@H]1C(=O)NC(C)(C)C | >100 | 6.59 | 6.68 | 50 | –
14 | CCc1ncc(COC(=O)N[C@H](C(=O)N[C@@H](Cc2ccccc2)[C@H](O)CN2CCN(Cc3ccc(OC)c(OC)c3)C[C@H]2C(=O)NC(C)(C)C)C(C)C)s1 | 50 | 7.80 | 6.88 | 37 | pIC50 [10]: 4.46
